Results as given in patent US20070287752A1, “Ophthalmic Compositions Comprising A Branched, Glycerol Compound” (priority 2006, published 2007).

Tests used:
Experiment in all cases: Preservative/disinfectant system efficacy testing (log reduction)
Assay type in all cases: cell-based
[1] = tested on: Candida albicans (ATCC 10231)
Description: (§1) The ophthalmic compositions are evaluated in accordance with specific procedures outlined by the US Food & Drug Administration and the International Organization for Standardization for the testing of microbiocidal efficacy.

[2] = tested on: Fusarium solani (ATCC 36031)
Description: as §1

[3] = tested on: Pseudomonas aeruginosa (ATCC 9027)
Description: as §1

[4] = tested on: Serratia marcescens (ATCC 13880)
Description: as §1

[5] = tested on: Staphylococcus aureus (ATCC 6538)
Description: as §1

[6] = 1 hr, Table 5A multi-purpose lens care solution, 10% organic soil, disinfectant concentrations as in label
[7] = 1 hr, Table 8A multi-purpose lens care formulation, disinfectant concentrations as in label
[8] = 1 hr, phosphate buffered saline, 10% organic soil, concentrations as in label (Table 4)
[9] = 1 hr, phosphate buffered saline, concentrations as in label (Table 7)
[10] = 4 hr, Table 5A multi-purpose lens care solution, 10% organic soil, disinfectant concentrations as in label
[11] = 4 hr, Table 8A multi-purpose lens care formulation, disinfectant concentrations as in label
[12] = 4 hr, phosphate buffered saline, 10% organic soil, concentrations as in label (Table 4)
[13] = 4 hr, phosphate buffered saline, concentrations as in label (Table 7)

Row | Compound | log reduction C. albicans [1, 7] | log reduction C. albicans [1, 9] | log reduction C. albicans [1, 11] | log reduction C. albicans [1, 13] | log reduction F. solani [2, 7] | log reduction F. solani [2, 9] | log reduction F. solani [2, 11] | log reduction F. solani [2, 13] | log reduction P. aeruginosa [3, 7] | log reduction P. aeruginosa [3, 9] | log reduction P. aeruginosa [3, 11] | log reduction P. aeruginosa [3, 13] | log reduction S. marcescens [4, 7] | log reduction S. marcescens [4, 9] | log reduction S. marcescens [4, 11] | log reduction S. marcescens [4, 13] | log reduction S. aureus [5, 7] | log reduction S. aureus [5, 9] | log reduction S. aureus [5, 11] | log reduction S. aureus [5, 13] | further results
1 | CCCCC(CC)CNC(=N)NC(=N)NCCCCCCNC(=N)NC(=N)NCC(CC)CCCC (stereo not drawn) [alexidine, reference compound] | 2.0 | 3.2 | 3.0 | 3.8 | 3.1 | 2.3 | 4.2 | 2.3 | 3.5 | 1.6 | 3.9 | 2.3 | 4.1 | 2.0 | >5.2 | 3.5 | 3.3 | 1.4 | 3.8 | 1.4 | log reduction C. albicans [1, 6]: 2.0; log reduction C. albicans [1, 8]: 3.2; log reduction C. albicans [1, 10]: 3.0; log reduction C. albicans [1, 12]: 3.8; log reduction F. solani [2, 6]: 3.1; log reduction F. solani [2, 8]: 2.3; log reduction F. solani [2, 10]: 4.2; log reduction F. solani [2, 12]: 2.3; log reduction P. aeruginosa [3, 6]: 3.5; log reduction P. aeruginosa [3, 8]: 1.6; log reduction P. aeruginosa [3, 10]: 3.9; log reduction P. aeruginosa [3, 12]: 2.3; log reduction S. marcescens [4, 6]: 4.1; log reduction S. marcescens [4, 8]: 2.0; log reduction S. marcescens [4, 10]: >5.2; log reduction S. marcescens [4, 12]: 3.5; log reduction S. aureus [5, 6]: 3.3; log reduction S. aureus [5, 8]: 1.4; log reduction S. aureus [5, 10]: 3.8; log reduction S. aureus [5, 12]: 1.4
2 | CCCCC(CC)CNCC(O)CO (stereo not drawn) [EHAPD, 3-[(2-ethylhexyl)amino]-1,2-propanediol] | 2.4 | >5.0 | 2.6 | >5.0 | 2.4 | 2.3 | 4.8 | 5.2 | 1.2 | 1.4 | 1.3 | 1.4 | 2.7 | 3.3 | 3.2 | 3.8 | 1.2 | 1.4 | 1.2 | 1.4 | –
